Values joined by “and” are separate entries in the source; they are usually repeats but may differ in a detail not shown here. Equal entries are not always repeated.
Target: T1, GPR158-RGS7/Gβ5 complex (Homo sapiens, UniProt Q5T848)
T1 construct: substituting amino acids to alanine in full-length GPR158; expressed in transfected cells; host or cells: HEK293FT
T1 sequence (Q5T848 24-1215): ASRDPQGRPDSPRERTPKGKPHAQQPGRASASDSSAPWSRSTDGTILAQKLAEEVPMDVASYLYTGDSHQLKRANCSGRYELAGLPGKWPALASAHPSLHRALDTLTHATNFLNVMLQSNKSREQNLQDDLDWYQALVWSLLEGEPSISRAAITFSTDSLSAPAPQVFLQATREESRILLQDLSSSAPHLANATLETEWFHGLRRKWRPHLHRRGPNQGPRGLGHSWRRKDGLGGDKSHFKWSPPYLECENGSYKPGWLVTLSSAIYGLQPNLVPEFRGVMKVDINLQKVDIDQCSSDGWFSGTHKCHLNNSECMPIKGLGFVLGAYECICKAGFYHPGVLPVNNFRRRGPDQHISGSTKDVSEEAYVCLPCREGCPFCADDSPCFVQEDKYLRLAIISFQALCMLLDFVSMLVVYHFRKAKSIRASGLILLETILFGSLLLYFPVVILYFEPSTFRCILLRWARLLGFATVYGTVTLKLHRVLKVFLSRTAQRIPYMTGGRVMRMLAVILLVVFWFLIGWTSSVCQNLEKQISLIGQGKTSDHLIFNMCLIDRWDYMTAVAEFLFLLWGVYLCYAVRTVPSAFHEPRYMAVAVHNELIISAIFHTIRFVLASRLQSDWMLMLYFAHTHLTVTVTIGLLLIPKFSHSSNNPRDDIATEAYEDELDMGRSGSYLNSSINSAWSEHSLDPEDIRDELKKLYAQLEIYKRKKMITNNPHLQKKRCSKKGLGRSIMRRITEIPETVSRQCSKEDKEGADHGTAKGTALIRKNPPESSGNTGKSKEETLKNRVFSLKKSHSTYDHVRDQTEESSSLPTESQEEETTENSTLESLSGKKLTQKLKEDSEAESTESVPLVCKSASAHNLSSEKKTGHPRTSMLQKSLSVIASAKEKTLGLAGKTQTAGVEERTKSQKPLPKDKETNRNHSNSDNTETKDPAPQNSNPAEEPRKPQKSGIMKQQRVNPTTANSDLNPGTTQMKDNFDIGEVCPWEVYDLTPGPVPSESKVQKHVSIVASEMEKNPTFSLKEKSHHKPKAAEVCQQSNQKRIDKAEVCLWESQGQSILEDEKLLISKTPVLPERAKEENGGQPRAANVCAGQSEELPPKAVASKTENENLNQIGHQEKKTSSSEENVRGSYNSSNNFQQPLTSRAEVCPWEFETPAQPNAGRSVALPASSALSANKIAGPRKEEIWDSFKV
T1 sequence (P49802 1-495 partner): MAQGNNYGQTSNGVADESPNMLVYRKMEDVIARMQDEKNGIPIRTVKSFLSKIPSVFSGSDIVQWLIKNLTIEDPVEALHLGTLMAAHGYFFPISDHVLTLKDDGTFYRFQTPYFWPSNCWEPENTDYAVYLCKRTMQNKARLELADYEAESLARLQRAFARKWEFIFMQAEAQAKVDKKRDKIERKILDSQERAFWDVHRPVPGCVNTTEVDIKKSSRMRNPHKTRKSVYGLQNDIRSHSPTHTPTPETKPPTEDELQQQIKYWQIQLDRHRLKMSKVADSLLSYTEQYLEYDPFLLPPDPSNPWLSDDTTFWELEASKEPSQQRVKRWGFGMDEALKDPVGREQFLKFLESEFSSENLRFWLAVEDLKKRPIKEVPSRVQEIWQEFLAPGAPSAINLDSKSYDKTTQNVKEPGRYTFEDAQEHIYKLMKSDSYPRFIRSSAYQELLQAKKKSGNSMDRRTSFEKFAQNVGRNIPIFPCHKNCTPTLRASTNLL
T1 sequence (O14775 1-395 partner): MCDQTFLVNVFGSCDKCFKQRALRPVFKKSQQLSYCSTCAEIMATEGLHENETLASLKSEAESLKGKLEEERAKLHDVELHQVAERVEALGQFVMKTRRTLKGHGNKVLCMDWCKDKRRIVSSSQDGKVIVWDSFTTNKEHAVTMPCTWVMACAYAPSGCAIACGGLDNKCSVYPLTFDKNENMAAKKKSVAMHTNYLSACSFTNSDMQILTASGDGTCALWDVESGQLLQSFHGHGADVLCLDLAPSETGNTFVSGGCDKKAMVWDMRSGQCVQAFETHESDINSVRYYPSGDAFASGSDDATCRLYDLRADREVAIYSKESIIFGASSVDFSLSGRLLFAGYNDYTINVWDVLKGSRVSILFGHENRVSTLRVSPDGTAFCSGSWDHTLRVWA
Assay: BRET GAP assay, Gαo deactivation (KGAP)
Format: cell-based
Conditions: for IC50: GPR158/RGS7/Gβ5, Gαo, D2R, n=4 in triplicate, mean±s.e.m., read-out: IC50 (change in GAP activity, KGAP)
Experimental: FIGS. 3A-3D. Effect of taurine on Gαo deactivation mediated by GPR158-RGS7/Gβ5 complex. A and B) Representative traces of BRET signal showing Gαo activation mediated by D2R upon application of dopamine (100 μM) at t=0 s and Gαo deactivation triggered by injection of haloperidol (100 μM) at t=15 s (arrow). Time courses were examined without or with taurine (100 μM) incubation in mock transfected cells or cells transfected with GPR158. C) Quantification of deactivation time constant of the reactions presented in 3A and 3B. 1/τ is calculated from deactivation curves of 5 independent experiments each performed in triplicate for each transfection condition. Data shown represent mean±s.e.m. ****p<0.0001, ns=p>0.05 (two-way ANOVA). Columns with no fill (Mock), columns with dotted fill (Taurine) D) Dose response profile of changes in GAP activity (KGAP) calculated by subtracting the baseline deactivation rate (1/τ) from the rate of the reaction in the presence of the GPR158/RGS7/Gβ5. […] Data shown represent mean±s.e.m of 4 independent experiments each conduced in triplicate.
FIGS. 4A-4E. Glycine slows deactivation of Gαo by GPR158-RGS7/Gβ5 complex A) Schematics of the BRET-based GAP assay. G proteins are activated at t=0 s by stimulating GPCR (D2R, 0.1 mM). After reaching steady state the GPCR activity is terminated by injection of haloperidol (0.1 mM) at t=15 s (arrow). G protein deactivation is then monitored by dissociation of the Venus-Gβγ from masGRK3ct-Nluc reporter which occurs upon GTP hydrolysis by Gαo quenching the BRET signal. B and C) Representative traces of BRET signal showing Gαo activation and deactivation time course with or without glycine (100 μM) treatment in cells without GPR158 (b) or cells transfected with GPR158 (c). D) Quantification of deactivation time constant of the reactions presented in panels b and c. 1/τ is calculated from deactivation curves of n=5 independent experiments in triplicate from each cell transfection group. Data shown represent mean±s.e.m. ****p<0.0001, ns, p>0.05 (two-way ANOVA). Columns with no fill (Mock), columns with dotted fill (Glycine), columns with angled-line fill (Taurine) E) Dose response profile of changes in GAP activity (KGAP) calculated by subtracting the baseline deactivation rate (1/τ) from the rate of the reaction in the presence of the GPR158/RGS7/Gβ5. […] Data shown represent mean±s.e.m of n=4 independent experiments each conduced in triplicate.
To understand how glycine action on GPR158 regulates intracellular cAMP the inventors focused on GPR158 interaction with RGS7/Gβ5, an established GTPase Activating Protein (GAP) for the Gαi/o proteins (38) known to regulate cAMP production (39). The inventors used a well-established cell-based assay to monitor GAP activity by following kinetics of G protein deactivation (40) (FIG. 4A). In this assay, activation of G proteins by GDP/GTP exchange in response to GPCR stimulation generates the BRET signal upon interaction of liberated Venus-Gβγ subunits with the masGRK3CT-Nluc reporter.
Cellular measurements of BRET between Venus-Gβ1γ2 and masGRK3ct-Nluc were performed to examine GAP activity of RGS protein in living cells (described in detail in Masuho et al., 2015 (40)). Cells were co-transfected with the pcDNA3.1(+) plasmid coding for dopamine D2 receptor (1), GαoA (2), masGRK3ct-Nluc (1), Venus-156-239-Gβ1 (1), Venus-1-155-Gγ2 (1), and when indicated with RGS7/Gβ5 (2), GPR158 (1) (in parenthesis the ratio of transfected DNA). […]

IC50	potency of taurine as compared to glycine (GAP assay IC50 comparison)	Structure (SMILES)	effect on Gαo deactivation (GPR158 co-expressed with RGS7/Gβ5, 100 μM)	effect on Gαo deactivation without GPR158 (baseline or RGS7/Gβ5 without GPR158, glycine 100 μM)
~3 µM and 2.93 µM	–	NCC(=O)O [glycine]	significantly decelerated Gαo deactivation	no effect on either baseline Gαo deactivation or RGS7/Gβ5-assisted process
~6 µM and 5.89 µM	approximately two-fold lower potency	NCCS(=O)(=O)O [taurine, 2-aminoethanesulfonic acid]	–	–

— patent publication US20260376293A1, “METHODS FOR STUDYING GPR158 PHARMACOLOGY AND IDENTIFICATION OF ITS LIGANDS” (UNIVERSITY OF FLORIDA RESEARCH FOUNDATION, INCORPORATED, priority 2022, published 2026)
